In ChEMBL document CHEMBL1155132, “Synthesis and structure-activity relationship of 1H-indole-3-carboxylic acid pyridine-3-ylamides: a novel series of 5-HT2C receptor antagonists” (Bioorg Med Chem Lett, 2008):

How the values were obtained:
[1] = target: T1, 5-hydroxytryptamine receptor 2C (Homo sapiens, UniProt P28335); assay: Displacement of [3H]mesulergine at human cloned 5HT2C receptor expressed in CHOK1 cell; format: cell-based, CHO-K1
T1 sequence (P28335 whole entry): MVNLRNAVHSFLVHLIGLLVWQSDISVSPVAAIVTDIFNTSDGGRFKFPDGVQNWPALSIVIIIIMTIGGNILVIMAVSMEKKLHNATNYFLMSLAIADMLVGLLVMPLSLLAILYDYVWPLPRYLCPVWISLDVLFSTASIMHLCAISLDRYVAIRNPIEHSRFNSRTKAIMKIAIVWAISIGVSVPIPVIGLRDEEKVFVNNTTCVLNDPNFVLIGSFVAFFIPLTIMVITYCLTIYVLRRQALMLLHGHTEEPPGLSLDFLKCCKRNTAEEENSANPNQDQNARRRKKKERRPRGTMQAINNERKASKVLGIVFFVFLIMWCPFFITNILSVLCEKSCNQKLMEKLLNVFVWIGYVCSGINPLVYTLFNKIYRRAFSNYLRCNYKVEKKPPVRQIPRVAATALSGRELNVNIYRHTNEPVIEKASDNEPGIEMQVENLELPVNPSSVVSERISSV

[2] = target: T2, 5-hydroxytryptamine receptor 1A (Homo sapiens, UniProt P08908); assay: Displacement of [3H]8-OH-DPAT from human cloned 5HT1A receptor
T2 sequence (P08908 whole entry): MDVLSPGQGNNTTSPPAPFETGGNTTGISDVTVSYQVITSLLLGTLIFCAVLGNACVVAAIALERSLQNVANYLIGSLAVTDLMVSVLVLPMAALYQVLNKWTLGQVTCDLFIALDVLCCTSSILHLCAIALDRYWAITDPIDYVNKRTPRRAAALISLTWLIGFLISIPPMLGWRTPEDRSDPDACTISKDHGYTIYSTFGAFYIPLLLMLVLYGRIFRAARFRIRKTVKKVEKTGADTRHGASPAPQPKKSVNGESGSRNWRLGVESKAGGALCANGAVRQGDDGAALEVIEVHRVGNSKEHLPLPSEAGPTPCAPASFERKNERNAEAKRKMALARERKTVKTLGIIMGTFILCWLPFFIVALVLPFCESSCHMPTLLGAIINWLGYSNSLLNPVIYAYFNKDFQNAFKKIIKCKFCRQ

[3] = target: 5-hydroxytryptamine receptor 2A (Homo sapiens, UniProt P28223); assay: Displacement of [3H]ketanserin from human cloned 5HT2A receptor
[4] = target: 5-hydroxytryptamine receptor 6 (Homo sapiens, UniProt P50406); assay: Displacement of [3H]LSD from human cloned 5HT6 receptor
[5] = target: 5-hydroxytryptamine receptor 7 (Homo sapiens, UniProt P34969); assay: Displacement of [3H]LSD from human cloned 5HT7 receptor
[6] = target: D(2) dopamine receptor (Homo sapiens, UniProt P14416); assay: Displacement of [3H]spiperone from human cloned dopamine D2 receptor
[7] = target: D(3) dopamine receptor (Homo sapiens, UniProt P35462); assay: Displacement of [3H]spiperone from human cloned dopamine D3 receptor
[8] = target: T3, D(4) dopamine receptor (Homo sapiens, UniProt P21917); assay: Displacement of [3H]spiperone from human cloned dopamine D4 receptor
T3 sequence (P21917 whole entry): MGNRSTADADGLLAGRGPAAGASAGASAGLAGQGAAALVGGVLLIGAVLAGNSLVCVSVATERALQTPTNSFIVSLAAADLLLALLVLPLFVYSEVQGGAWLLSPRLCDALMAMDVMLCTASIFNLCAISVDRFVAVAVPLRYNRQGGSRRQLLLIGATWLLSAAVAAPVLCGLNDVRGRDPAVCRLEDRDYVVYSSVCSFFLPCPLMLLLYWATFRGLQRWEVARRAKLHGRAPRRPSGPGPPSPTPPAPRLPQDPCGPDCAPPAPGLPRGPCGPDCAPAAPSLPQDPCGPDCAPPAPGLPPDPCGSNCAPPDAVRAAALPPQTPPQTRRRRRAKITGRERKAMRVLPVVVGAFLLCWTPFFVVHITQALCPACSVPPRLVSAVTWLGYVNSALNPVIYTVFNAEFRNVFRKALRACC

Chain of 5-hydroxytryptamine receptor 7 (P34969 whole entry): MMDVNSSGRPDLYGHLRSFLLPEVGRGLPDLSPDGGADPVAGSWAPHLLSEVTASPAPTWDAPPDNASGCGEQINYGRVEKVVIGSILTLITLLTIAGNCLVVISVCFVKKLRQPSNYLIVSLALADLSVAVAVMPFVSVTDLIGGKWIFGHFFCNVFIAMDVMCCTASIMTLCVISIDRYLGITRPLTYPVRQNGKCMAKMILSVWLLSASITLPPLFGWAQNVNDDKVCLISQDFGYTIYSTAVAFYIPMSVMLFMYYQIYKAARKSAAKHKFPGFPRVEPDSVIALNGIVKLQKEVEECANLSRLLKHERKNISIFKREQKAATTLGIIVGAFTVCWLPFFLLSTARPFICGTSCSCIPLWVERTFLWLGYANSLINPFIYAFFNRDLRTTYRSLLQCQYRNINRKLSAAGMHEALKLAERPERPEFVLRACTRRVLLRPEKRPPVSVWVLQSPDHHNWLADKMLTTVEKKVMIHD
Chain of D(2) dopamine receptor (P14416 whole entry): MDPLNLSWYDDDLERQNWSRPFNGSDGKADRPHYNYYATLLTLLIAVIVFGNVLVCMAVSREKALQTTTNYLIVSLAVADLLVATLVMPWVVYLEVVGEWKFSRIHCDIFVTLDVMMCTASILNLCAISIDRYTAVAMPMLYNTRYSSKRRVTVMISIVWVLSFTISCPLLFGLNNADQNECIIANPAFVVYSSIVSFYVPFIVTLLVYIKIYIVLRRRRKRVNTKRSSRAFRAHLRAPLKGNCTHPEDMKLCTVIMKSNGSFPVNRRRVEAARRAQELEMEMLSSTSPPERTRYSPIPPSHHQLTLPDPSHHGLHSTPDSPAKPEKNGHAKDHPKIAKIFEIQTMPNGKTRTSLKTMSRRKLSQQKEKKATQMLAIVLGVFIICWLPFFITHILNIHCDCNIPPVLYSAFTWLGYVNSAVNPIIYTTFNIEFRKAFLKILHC
Chain of 5-hydroxytryptamine receptor 6 (P50406 whole entry): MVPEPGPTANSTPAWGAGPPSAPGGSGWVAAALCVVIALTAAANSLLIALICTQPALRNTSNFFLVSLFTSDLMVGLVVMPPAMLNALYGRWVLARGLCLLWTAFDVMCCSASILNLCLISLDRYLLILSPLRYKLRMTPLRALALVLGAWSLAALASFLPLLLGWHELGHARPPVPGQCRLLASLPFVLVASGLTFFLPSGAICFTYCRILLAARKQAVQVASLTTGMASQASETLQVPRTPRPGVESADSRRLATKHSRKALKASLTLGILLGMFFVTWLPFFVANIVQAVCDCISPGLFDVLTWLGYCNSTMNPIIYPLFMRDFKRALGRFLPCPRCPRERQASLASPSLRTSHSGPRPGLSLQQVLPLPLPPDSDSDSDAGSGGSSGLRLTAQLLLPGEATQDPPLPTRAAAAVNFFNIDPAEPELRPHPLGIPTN
Chain of 5-hydroxytryptamine receptor 2A (P28223 whole entry): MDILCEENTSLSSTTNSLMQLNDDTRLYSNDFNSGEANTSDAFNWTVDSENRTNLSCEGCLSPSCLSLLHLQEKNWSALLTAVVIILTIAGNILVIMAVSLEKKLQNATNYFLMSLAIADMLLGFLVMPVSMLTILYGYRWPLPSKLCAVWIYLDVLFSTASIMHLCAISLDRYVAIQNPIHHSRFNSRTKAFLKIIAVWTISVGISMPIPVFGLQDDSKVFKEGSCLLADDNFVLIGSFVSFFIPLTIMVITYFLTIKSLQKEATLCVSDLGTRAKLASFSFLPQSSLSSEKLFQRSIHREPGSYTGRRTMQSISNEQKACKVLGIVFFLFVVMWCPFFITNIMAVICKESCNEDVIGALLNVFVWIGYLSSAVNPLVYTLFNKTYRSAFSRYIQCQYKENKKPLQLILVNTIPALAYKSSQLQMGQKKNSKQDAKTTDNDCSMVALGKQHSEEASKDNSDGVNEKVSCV
Chain of D(3) dopamine receptor (P35462 whole entry): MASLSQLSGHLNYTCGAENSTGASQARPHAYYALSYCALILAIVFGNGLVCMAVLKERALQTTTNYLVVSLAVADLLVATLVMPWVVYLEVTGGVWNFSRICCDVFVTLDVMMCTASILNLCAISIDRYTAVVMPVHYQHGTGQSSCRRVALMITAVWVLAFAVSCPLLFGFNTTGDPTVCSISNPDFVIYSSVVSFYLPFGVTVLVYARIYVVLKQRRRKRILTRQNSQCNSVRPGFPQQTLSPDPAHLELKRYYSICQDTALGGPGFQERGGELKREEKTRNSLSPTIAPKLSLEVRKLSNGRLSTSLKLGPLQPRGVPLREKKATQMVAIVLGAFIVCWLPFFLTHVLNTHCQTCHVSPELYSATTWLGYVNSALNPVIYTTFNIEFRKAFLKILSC

Row | IC50 [1] [µM] | IC50 [8] [µM] | SMILES | other results
1 | 0.059 | – | Cc1ncccc1Oc1ccc(NC(=O)c2cc3ccccc3[nH]2)cn1 | –
2 | 0.006 | – | O=C(Nc1ccc(OCc2ccccn2)nc1)c1c[nH]c2ccccc12 | –
3 | – | > 10 | O=C(Nc1ccc(Oc2cccnc2)nc1)c1c[nH]c2ccccc12 | IC50 [2]: > 10 µM; IC50 [3]: > 1 µM; IC50 [4]: > 10 µM; IC50 [5]: > 10 µM; IC50 [6]: > 10 µM; IC50 [7]: > 10 µM
4 | – | > 10 | O=C(Nc1ccc(Oc2cccnc2Cl)nc1)c1c[nH]c2ccccc12 | –
5 | > 10 | – | O=C(Nc1cccnc1)c1c[nH]c2ccccc12 | –
6 | – | > 1 | Cc1cc2c(cc1C(F)(F)F)N(C(=O)Nc1ccc(Oc3cccnc3C)nc1)CC2 [SB-243213] | –
